EP4786484A1, “CYCLIC PEPTIDE COMPOUND AND USE THEREOF” (Shenzhen Zhongge Biological Technology Co., Ltd., priority 2023, dated 2026)
Residues, ends and D or L forms follow the SMILES beside them.

Key:
[1] = system: Fibroblasts of human origin; assay: Fibroblast cytotoxicity test (MTT); assay type: cell-based; conditions: 24 h, OD 490 nm
Protocol: A. Fibroblast cytotoxicity test
Test materials: Fibroblasts of human origin (Guangdong Boxi Biotechnology Co., Ltd., Lot No. Fb20081902), DMEM culture medium (Gibco, 23042301, expiration date on 230522), PBS (Solarbio, P1010), MTT (Sigma, M5655), DMSO (Sigma, D4540-1L), CO2 incubator (Thermo, 150I), super-clean bench (AIRTECH, SW-CJ-1F), inverted microscope (Olympus, CKX53).
Test methods: • 1) Cell inoculation: After cell resuscitation, the cells were inoculated into 96-well plates when the plating rate reached around 60%, and were incubated overnight in an incubator (37°C, 5% CO2). • 2) Test grouping: The blank group, solvent control group, positive control group, and sample group were set for the test. In the sample group, 7 concentration gradients were set for each sample and 3 duplicate wells were set for each concentration gradient. • 3) Formulation of solutions: Sample working solutions at different concentrations were formulated based on the test concentrations of 0.0781 µM, 0.1563 µM, 0.3125 µM, 0.625 µM, 1.25 µM, 2.5 µM, and 5 µM. • 4) Administration: Administration was performed when the cell plating rate in the 96-well plates reached 50% to 60%. 200 µL of culture medium per well was added for the solvent control group; 200 µL of culture medium containing 10% DMSO per well was added for the positive control group; 200 µL of culture medium containing the sample at a corresponding concentration per well was added for the sample group; The blank group had no cell inoculation, for which only 200 µL of cell culture medium was added. After the administration was complete, the 96-well plates were incubated in an incubator (37°C, 5% CO2) for 24 h. • 5) Detection: After 24 h of cell incubation and culture, the supernatant was discarded, and MTT working solution (0.5 mg/mL) was added. Incubation was performed at 37°C for 4 h in the dark. After the incubation was completed, the supernatant was discarded and 150 µL DMSO was added to each well. The OD value was read at 490 nm. • 6) Calculation of relative viability of cells: Calculation was performed according to the formula below: Relative viability of cells = (Sample well OD−Blank well OD)/(Solvent control well OD−Blank well OD) × 100%. [formula]

[2] = system: Collagen I (type I collagen); assay: Collagen I elevation effect in fibroblasts (ELISA); assay type: cell-based, human; conditions: 1 µM, 24 h; result in words
Text: (§1) B. Collagen I (type I collagen) elevation effect in fibroblasts, hyaluronic acid (HA) elevation effect in fibroblasts, and elastin (ELN) elevation effect in fibroblasts
(§2) Test materials: Fibroblasts of human origin (Guangdong Boxi Biotechnology Co., Ltd., Lot No. Fb20081902), DMEM culture medium (Gibco, 23042301, expiration date 230522), PBS (Solarbio, P1010), TGF-β1 (Peprotech, 230504), Collagen I ELISA Kit (Cusabio, B21025824), Elastin ELISA kit (Abcam, GR3446070-2), HA ELISA kit (RD, P325066). CO2 incubator (Thermo, 1501), super-clean bench (AIRTECH, SW-CJ-1F), microplate reader (BioTek, Epoch).
(§3) Test methods: • 1) Inoculation: After cell resuscitation, the cells were inoculated into 6-well plates when the plating rate reached around 60%, and were incubated overnight in an incubator (37°C, 5% CO2). • 2) Formulation of solutions: The cyclic peptide compounds in the sample group, PC2 (Biotinoyl-GHK, [drawing 2] ) and PC3 [drawing 3] in the positive reference group were all at the concentration of 1 µM, and the test substance working solutions were formulated. Only the cell culture medium was added for the blank control group (BC). • 3) Administration: When the cell plating rate in the 6-well plates reached 40% to 60%, administration was performed at 2 mL per well. 3 duplicate wells were set for each group. Incubation was performed in an incubator (37°C, 5% CO2) for 24 h. • 4) ELISA assay: The ELISA assay was performed according to the instructions of the ELISA kit, with the detection indicators being Collagen I elevation effect in the fibroblasts, HA elevation effect in the fibroblasts, and elastin elevation effect in the fibroblasts.

[3] = system: elastin (ELN); assay: Elastin (ELN) elevation effect in fibroblasts (ELISA); assay type: cell-based, human; set-up: Elastin elevation effect in the fibroblasts: unit not given here; conditions: 1 µM, 24 h
Text: as §1, §2, §3

[4] = system: hyaluronic acid (HA); assay: Hyaluronic acid (HA) elevation effect in fibroblasts (ELISA); assay type: cell-based, human; set-up: HA elevation effect in the fibroblasts: unit not given here; conditions: 1 µM, 24 h
Text: as §1, §2, §3

With `CC(C)C[C@@H]1NC(=O)[C@H](Cc2ccccc2)NC(=O)[C@H](CC(C)C)NC(=O)[C@H](CCCCN)NC(=O)[C@H](Cc2c[nH]cn2)NC(=O)CNC1=O` [compound 292] (cyclo(FLGHKL)) the “Relative viability of cells” value ([1]; 0.0781 µM) was 107.68%, the “Relative viability of cells” value ([1]; 0.1563 µM) was 107.63% and the “Relative viability of cells” value ([1]; 0.3125 µM) was 105.05%. For the same molecule, the “Relative viability of cells” value ([1]; 0.625 µM) was 102.37%, the “Relative viability of cells” value ([1]; 1.25 µM) was 102.07% and the “Relative viability of cells” value ([1]; 2.5 µM) was 102.88%. The “Relative viability of cells” value ([1]; 5 µM) was 102.88%, the “type I collagen (Collagen I) content compared to the BC” value [2] was “significant increase” and the “Elastin elevation effect in the fibroblasts” value ([3]; ELISA, Blank control (BC) 756.52) was 1278.99. For the same molecule, the “elastin content compared to the BC” value ([3]; result in words) was “significant increase”, the “HA elevation effect in the fibroblasts” value ([4]; ELISA, Blank control (BC) 1402.44) was 2635.98 and the “hyaluronic acid (HA) content compared to the BC” value ([4]; result in words) was “significant increase”.
